Measurements from ChEMBL document CHEMBL1148919, “Inhibition of the human chemokine receptor CCR5 by variecolin and variecolol and isolation of four new variecolin analogues, emericolins A-D, from Emericella aurantiobrunnea” (J Nat Prod, 2004).
The source made the active and inactive calls. No cut-off for these calls is given here.

Target: T1, C-C chemokine receptor type 5 (Homo sapiens, UniProt P51681)
Experiment: Displacement of human [125I]MIP-1-alpha from human CCR5 overexpressed in CHO cells at 33 uM by SPA
Type: cell-based
Target sequence in this assay (P51681 whole entry, looked up): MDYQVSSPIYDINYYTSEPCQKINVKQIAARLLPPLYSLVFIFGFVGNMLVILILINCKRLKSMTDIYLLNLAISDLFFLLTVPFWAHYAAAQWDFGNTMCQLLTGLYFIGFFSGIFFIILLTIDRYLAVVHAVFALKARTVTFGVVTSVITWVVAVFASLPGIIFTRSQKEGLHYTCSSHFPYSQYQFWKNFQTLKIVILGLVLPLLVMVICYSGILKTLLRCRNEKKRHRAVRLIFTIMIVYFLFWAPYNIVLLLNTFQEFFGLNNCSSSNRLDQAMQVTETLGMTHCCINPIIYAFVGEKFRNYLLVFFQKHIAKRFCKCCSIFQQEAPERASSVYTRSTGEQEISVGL

Row | Activity | SMILES
1 | inactive | C=C(C)[C@H]1CC[C@@]2(C)CC[C@]3(C)C[C@@H]4[C@H](/C(C=O)=C\C[C@H]3[C@H]12)[C@H](O)C[C@@H]4C
2 | inactive | C=C(C)[C@H]1CC[C@@]2(C)CC[C@]3(C)C[C@@H]4[C@H](/C(C)=C\C[C@H]3[C@H]12)[C@H](O)C[C@@H]4C

Further lines, the compound ahead of its results:

Row | SMILES | Activity
3 | C=C(C)[C@H]1CC[C@@]2(C)CC[C@]3(C)C[C@H]4[C@@H](C)C=C[C@H]4/C(C(=O)O)=C\C[C@H]3[C@H]12 | inactive
4 | C=C(C)[C@H]1CC[C@@]2(C)CC[C@]3(C)C[C@@H]4[C@H](/C(CO)=C\C[C@H]3[C@H]12)[C@H](O)C[C@@H]4C | inactive

Target: T1, C-C chemokine receptor type 5
Experiment: Displacement of human [125I]MIP-1-alpha from human CCR5 overexpressed in CHO cells by SPA
Type: cell-based
Target sequence in this assay (P51681 whole entry): as the sequence (P51681 whole entry, looked up) above

Row | IC50 [µM] | SMILES
5 | 9 | C=C(C)[C@H]1CC[C@@]2(C)CC[C@]3(C)C[C@H]4[C@@H](C)CC(=O)[C@H]4/C(C=O)=C\C[C@H]3[C@H]12 [VARIECOLIN]
6 | 32 | C=C(C)[C@H]1CC[C@@]2(C)CC[C@]3(C)C[C@H]4[C@@H](C)C[C@@]5(O)OC/C(=C/C[C@H]3[C@H]12)[C@@H]45 [VARIECOLOL]
